# Patent US20130171254A1, “FAST DISSOLVING PHARMACEUTICAL COMPOSITION COMPRISING LORNOXICAM” (ABBOTT HEALTHCARE PRIVATE LIMITED, priority 2009, published 2013)
# Like-named read-outs stand apart in the source and are kept apart here.
# What was measured:
# [1] = 8 mg dose, acidic conditions such as found in the stomach
# [2] = 0.1 N HCl at room temperature (Bertelsen et al U.S. Pat. No. 6,713,089); cited from earlier work
# [3] = cited from earlier work
# [4] = cited from earlier work; remark: listed apart in the source
# [5] = physchem
# [6] = cited from earlier work; remark: listed apart in the source
compound,measurement,setting,value
"CN1C(=C(O)Nc2ccccn2)C(=O)c2sc(Cl)cc2S1(=O)=O (stereo in doubt) [lornoxicam, (3E)-6-chloro-3-[hydroxy(pyridin-2-ylamino)methylene]-2-methyl-2,3-dihydro-4H-thieno[2,3-e][1,2]thiazin-4-one 1,1-dioxide]",volume of acid required for complete dissolution,[1],more than 1400 ml
same,solubility,[2],less than 1 mg/100 ml
same,pKa,[3]; basic pyrimido group,5.5
same,pKa,[3],4.7
same,pKa,[3]; enolic group,1-2
same,apparent partition coefficient,[3]; n-octanol/buffer pH 7.4,1.8
same,synovial fluid: plasma AUC ratios,[4]; after administration of 4 mg twice daily,~0.5
same,"Tmax, range",[4]; fasted subjects,1.4 to 6 h
same,time to reach peak plasma concentrations (Tmax),[4]; fasted subjects,around 2.5 hours
same,half-life,[4]; in vivo,approximately 4 hours
same,median Tmax,"[4]; new formulations containing 40% bicarbonate, co-processed intimately (US 20070218128, Bertelsen)",0.5 h
same,median Tmax,"[4]; standard tablets (US 20070218128, Bertelsen)",2.5 h
same,solubility,"[5]; pH 1.2, simulated gastric fluid",5.6 µg/mL
same,solubility,[5]; water,10.4 µg/mL
O=C(O)Cc1ccccc1Nc1c(Cl)cccc1Cl [diclofenac],mean Tmax,[6]; 25 mg film-coated tablets with bicarbonate,21.2 min
same,mean Tmax,[6]; 50 mg film-coated tablets with bicarbonate,29.8 min
same,mean Tmax,[6]; standard immediate release tablets,50.8 min
